Laboratory results from paper PMC10285300, “Abscisic acid mimic-fluorine derivative 4 alleviates water deficit stress by regulating ABA-responsive genes, proline accumulation, CO2 assimilation, water use efficiency and better nutrient uptake in tomato plants” (Frontiers in Plant Science, 2023).

How the values were obtained:
[1] = biological target: T1, Sl08g076960 (Solanum lycopersicum, UniProt A0A3Q7HTY9); assay: PP2C inhibition assay (pNPP, […] nm), receptor-dependent inhibition of HAB1; type: biochemical; details: agonist; deltaN-HAB1 1 uM, receptor 2 uM, 25 mM pNPP, 10 mM MnCl2, Tris pH 8.0
T1 construct: gene LOC101268417; with Protein phosphatase 2C 16 (Arabidopsis thaliana)
T1 sequence (A0A3Q7HTY9 1-231): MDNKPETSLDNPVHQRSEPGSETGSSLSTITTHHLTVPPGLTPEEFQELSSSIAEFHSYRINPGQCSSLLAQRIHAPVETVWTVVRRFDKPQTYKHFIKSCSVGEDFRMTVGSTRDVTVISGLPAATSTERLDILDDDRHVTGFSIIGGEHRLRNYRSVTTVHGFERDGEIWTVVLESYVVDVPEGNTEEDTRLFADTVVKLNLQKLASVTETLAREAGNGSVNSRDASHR
T1 sequence (Q9CAJ0 172-511 partner limits assumed): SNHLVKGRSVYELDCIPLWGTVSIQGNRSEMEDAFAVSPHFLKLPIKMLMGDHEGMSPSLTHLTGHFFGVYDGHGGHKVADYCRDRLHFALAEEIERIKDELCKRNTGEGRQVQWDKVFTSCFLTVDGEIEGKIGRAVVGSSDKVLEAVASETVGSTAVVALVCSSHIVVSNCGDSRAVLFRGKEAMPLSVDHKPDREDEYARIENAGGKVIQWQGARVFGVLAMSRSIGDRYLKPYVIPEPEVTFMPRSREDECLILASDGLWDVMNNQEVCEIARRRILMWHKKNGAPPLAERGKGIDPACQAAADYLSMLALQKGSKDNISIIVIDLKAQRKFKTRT

[2] = biological target: T2, ΔN-HAB1 (Arabidopsis thaliana, UniProt Q9CAJ0); assay: phosphatase activity, […] nm, […] min; type: biochemical; details: 25 mM pNPP, 10 mM MnCl2, Tris pH 8.0
T2 sequence (Q9CAJ0 172-511 limits assumed): T1 sequence (Q9CAJ0 172-511 partner limits assumed)

CCCN1C(=O)CCc2cc(NS(=O)(=O)Cc3c(F)c(F)c(C)c(F)c3F)ccc21 [AMF4, N-(2-oxo-1-propyl-1,2,3,4-tetrahydroquinolin-6-yl)-1-(2,3,5,6-tetrafluoro-4-methylphenyl) methanesulfonamide]
PP2C activity at 1 or 10 μM [1]: both PYL1-like tomato receptors were activated by AMF4, resulting in the inhibition of the PP2C

O=[N+]([O-])c1ccc(OP(=O)(O)O)cc1 [p-nitrophenyl phosphate]
phosphatase activity, 405 nm, 20 min [2]: Phosphatase activity was measured using p-nitrophenyl phosphate (pNPP) as a substrate
